Laboratory results from ChEMBL document CHEMBL1201862, “PubChem BioAssay data set” (2004).
The source made the active and inactive calls.

Tests used:
[1] = Reduced DLD-1 viability, concentration-response, CellTiter-Glo luminescence (AID 1117352); type: functional
[2] = SNU-C1 cell viability reduction, dose response, CellTiter-Glo luminescence (AID 1117323); type: functional, cell-based
[3] = cytotoxicity toward HCT116 cells – cell-based, CellTiter-Glo luminescence, IC50, dose response (AID 1117332); type: functional; conditions: HCT-116
[4] = cytotoxicity toward HT-29 cells – cell-based, CellTiter-Glo luminescence, IC50, dose response (AID 1117330); type: functional
[5] = molecular target: T1, Small ubiquitin-related modifier 1 (Homo sapiens, UniProt P63165); assay: SUMO1 protein-protein binding blockers, potency – biochemical, FRET, dose response (AID 624383); type: functional; conditions: read-out: IC50_Mean
T1 sequence (P63165 whole entry): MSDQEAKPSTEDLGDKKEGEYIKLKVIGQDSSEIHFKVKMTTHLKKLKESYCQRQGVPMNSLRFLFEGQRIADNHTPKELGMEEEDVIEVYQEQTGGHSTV

[6] = molecular target: T1, Small ubiquitin-related modifier 1; assay: SUMO1 protein interaction blockers, potency – biochemical, fluorescence polarization, uHTS hits, dose response (AID 624382); type: functional; conditions: read-out: IC50_Mean
[7] = RKO cell viability reduction, dose response, CellTiter-Glo luminescence (AID 1117322); type: functional
[8] = test system: Streptococcus sp. 'group A'; assay: Streptococcus pyogenes SK(-)GAS viability under kanamycin – luminescence, BacTiterGlo, confirmation, counter-screen for streptokinase expression inhibitor project, dose response (AID 1900); type: functional, organism-based
[9] = molecular target: T2, Hexokinase (Trypanosoma brucei, UniProt Q38C41); assay: Confirmation assay for inhibitors of Trypanosoma brucei hexokinase 1-Analogue-first series. [Related pubchem assays (depositor defined):AID1430, AID1632, AID2516, AID2560, AID2579, AID2600, AID449725, AID492951]; type: functional
T2 sequence (Q38C41 whole entry): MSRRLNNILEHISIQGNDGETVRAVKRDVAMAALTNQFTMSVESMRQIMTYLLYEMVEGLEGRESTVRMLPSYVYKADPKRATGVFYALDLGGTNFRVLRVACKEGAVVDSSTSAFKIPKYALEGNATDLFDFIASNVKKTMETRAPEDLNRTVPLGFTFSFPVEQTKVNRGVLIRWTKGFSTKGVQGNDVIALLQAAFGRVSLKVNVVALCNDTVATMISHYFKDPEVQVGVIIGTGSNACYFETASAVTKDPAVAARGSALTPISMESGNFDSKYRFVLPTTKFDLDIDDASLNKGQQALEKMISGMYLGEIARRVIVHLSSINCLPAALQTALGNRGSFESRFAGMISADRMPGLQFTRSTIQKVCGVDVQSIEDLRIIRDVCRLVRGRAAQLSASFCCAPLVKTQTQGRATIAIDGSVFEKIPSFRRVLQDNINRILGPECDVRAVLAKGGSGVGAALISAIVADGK

[10] = CellTiter-Glo luminescence survival assay, SW480 colon tumor line, concentration-response curve, half-maximal inhibitory concentration (AID 1117338); type: functional
[11] = cytotoxicity toward Colo320 cells – cell-based, CellTiter-Glo luminescence, IC50, dose response (AID 1117334); type: functional; conditions: COLO 320
[12] = test system: Streptococcus; assay: GAS UMAA2166 growth inhibition – luminescence, BacTiterGlo, counter-screen for streptokinase expression inhibitor project, dose response (AID 1915); type: functional, organism-based;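 note: potency for reduction of bacterial viability or growth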
[13] = Luminescent dose response cell-based high throughput screening assay for inhibitors of the Janus kinase 2 mutant JAK2V617F. [Related pubchem assays: 1446 (Primary screen.), 1521 (Confirmation assay.), 1486 (Counter screen.)]; type: functional
[14] = molecular target: E3 ubiquitin-protein ligase Mdm2 (Homo sapiens, UniProt Q00987); assay: MDM2-luc reporter signal enhancers, multi-concentration potency testing, MDM2 ubiquitin-protein ligase inhibitor program, whole-cell format, luminescence detection, 384-well microplate (AID 1394); type: functional;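 note: MDM2 E3 inhibitors raise luminescence so EC50 is for signal enhancement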
Sequence of E3 ubiquitin-protein ligase Mdm2 (Q00987 whole entry): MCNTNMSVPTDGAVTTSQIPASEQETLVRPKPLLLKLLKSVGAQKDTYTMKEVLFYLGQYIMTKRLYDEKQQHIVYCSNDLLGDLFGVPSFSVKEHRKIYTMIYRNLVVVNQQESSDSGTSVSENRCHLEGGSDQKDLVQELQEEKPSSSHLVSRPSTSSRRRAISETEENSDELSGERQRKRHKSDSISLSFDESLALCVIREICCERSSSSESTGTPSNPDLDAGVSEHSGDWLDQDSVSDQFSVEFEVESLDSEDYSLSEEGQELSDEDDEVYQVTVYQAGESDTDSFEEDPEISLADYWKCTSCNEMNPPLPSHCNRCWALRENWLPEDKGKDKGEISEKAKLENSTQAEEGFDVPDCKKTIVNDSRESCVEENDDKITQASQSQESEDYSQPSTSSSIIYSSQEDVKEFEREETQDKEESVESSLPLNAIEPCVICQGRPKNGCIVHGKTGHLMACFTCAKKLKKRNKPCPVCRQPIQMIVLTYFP

[15] = molecular target: Bifunctional protein GlmU (Mycobacterium tuberculosis, UniProt P9WMN3); assay: Inhibitors of Mycobacterial Glucosamine-1-phosphate acetyl transferase (GlmU). Secondary screen.; set-up: species or system Mycobacterium tuberculosis H37Rv
Sequence of Bifunctional protein GlmU (P9WMN3 whole entry): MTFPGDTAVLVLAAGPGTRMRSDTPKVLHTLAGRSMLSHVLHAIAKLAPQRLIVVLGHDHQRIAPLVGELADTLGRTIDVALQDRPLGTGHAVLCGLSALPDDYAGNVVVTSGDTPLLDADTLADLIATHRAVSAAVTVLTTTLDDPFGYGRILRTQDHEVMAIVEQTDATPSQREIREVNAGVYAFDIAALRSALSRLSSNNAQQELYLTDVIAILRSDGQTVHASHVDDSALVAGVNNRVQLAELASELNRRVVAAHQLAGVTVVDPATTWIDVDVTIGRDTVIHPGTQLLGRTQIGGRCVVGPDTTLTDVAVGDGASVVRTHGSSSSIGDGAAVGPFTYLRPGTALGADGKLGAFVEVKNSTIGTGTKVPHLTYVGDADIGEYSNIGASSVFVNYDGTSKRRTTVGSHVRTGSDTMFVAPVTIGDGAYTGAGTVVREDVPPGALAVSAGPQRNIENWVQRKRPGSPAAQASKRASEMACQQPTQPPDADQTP

[16] = IC50 of insulin release inhibition, rat insulinoma INS-1E line, 5 mM glucose, cell-based (AID 1117331); type: functional
[17] = Potency on glucagon-like peptide 1 release, dose-response in NCI-H716 cell line, half maximal inhibitory concentration (AID 1117344); type: functional, cell-based
[18] = molecular target: T3, Heat shock protein HSP 90-alpha (Homo sapiens, UniProt P07900); type: functional, organism-based
[19] = embryonic kidney cell viability loss – CellTiter-Glo luminescence, dry powder, set 20, cytotoxicity control, dose response (AID 1117293); type: functional, cell-based; conditions: HEK293
[20] = hepatoma cell viability loss – CellTiter-Glo luminescence, dry powder, set 20, cytotoxicity control, dose response (AID 1117291); type: functional, cell-based; conditions: HepG2
[21] = molecular target: Transthyretin (Homo sapiens, UniProt P02766); assay: Luminescence-based cell-based high throughput dose response assay to identify activators of Transthyretin (TTR) transcription.; type: functional
[22] = molecular target: T4, Calpain-2 catalytic subunit (Sus scrofa, UniProt P43367); assay: m-calpain protease blockers, concentration series – biochemical, fluorogenic peptide substrate, dose response (AID 1420); type: functional
T4 sequence (P43367 whole entry): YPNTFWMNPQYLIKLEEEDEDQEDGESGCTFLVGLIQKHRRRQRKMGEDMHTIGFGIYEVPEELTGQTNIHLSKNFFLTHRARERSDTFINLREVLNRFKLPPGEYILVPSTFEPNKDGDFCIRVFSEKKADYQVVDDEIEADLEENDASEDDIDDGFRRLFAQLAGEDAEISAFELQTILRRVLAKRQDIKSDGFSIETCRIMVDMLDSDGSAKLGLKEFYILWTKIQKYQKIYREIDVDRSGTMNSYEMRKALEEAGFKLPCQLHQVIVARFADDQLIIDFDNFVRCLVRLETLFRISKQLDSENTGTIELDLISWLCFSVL

[23] = viability loss in THP-1 monocytes – THP-1 cells, cytotoxicity control for Vif-APOBEC3G degradation inhibitor project, dose response (AID 1117359); type: functional; conditions: THP-1
[24] = molecular target: Bcl-2-like protein 1 (Homo sapiens, UniProt Q07817); assay: blockers of BCLXL peptide binding – biochemical, fluorescence polarization, 1536-well, selectivity assay for MCL1 inhibitor project, dose response (AID 2218)
Sequence of Bcl-2-like protein 1 (Q07817 whole entry): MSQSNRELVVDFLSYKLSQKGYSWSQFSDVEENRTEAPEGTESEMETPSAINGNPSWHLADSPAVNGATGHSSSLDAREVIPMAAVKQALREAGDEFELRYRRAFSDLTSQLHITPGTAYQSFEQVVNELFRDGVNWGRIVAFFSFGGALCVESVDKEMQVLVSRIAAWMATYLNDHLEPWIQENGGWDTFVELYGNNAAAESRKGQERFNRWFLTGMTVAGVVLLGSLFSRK

[25] = HIV-1 Vif–A3G interaction blockers – biochemical, TR-FRET, GST-Vif 1-94, biotin-A3G peptide, dose response retest, primary screen (AID 1117319); type: functional;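 note: TR-FRET signal of purified GST-Vif binding a biotinylated A3G peptide; inhibitors lower the FRET signal by blocking Vif and A3G binding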
[26] = molecular target: Protein Tat (Human immunodeficiency virus type 1 group M subtype B (isolate HXB2)(HIV-1), UniProt P04608); type: functional;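 note: tat binding to TAR RNA read out by fluorescence polarization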
Sequence of Protein Tat (P04608 whole entry): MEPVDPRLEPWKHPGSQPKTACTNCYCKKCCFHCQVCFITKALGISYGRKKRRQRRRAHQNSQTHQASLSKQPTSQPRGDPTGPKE

[27] = molecular target: Induced myeloid leukemia cell differentiation protein Mcl-1 (Homo sapiens, UniProt Q07820); assay: blockers of MCL1 binding to BIM peptide – biochemical, fluorescence polarization, BIM-BH3 peptide, 1536-well, dose response (AID 2217)
Sequence of Induced myeloid leukemia cell differentiation protein Mcl-1 (Q07820 whole entry): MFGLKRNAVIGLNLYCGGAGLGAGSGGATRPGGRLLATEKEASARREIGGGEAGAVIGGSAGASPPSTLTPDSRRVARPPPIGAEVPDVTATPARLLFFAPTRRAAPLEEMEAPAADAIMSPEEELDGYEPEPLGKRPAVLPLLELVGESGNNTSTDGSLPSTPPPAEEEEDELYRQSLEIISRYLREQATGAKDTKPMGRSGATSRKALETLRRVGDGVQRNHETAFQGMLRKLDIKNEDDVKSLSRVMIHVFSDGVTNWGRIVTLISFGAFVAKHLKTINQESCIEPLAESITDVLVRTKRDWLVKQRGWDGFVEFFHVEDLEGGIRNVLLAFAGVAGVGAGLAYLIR

[28] = molecular target: Metabotropic glutamate receptor 7 (Homo sapiens, UniProt Q14831); assay: potentiation of glutamate EC20 at mGlu7 – cell-based, calcium mobilization, Galpha15, dose response (AID 743384); type: functional
Sequence of Metabotropic glutamate receptor 7 (Q14831 whole entry): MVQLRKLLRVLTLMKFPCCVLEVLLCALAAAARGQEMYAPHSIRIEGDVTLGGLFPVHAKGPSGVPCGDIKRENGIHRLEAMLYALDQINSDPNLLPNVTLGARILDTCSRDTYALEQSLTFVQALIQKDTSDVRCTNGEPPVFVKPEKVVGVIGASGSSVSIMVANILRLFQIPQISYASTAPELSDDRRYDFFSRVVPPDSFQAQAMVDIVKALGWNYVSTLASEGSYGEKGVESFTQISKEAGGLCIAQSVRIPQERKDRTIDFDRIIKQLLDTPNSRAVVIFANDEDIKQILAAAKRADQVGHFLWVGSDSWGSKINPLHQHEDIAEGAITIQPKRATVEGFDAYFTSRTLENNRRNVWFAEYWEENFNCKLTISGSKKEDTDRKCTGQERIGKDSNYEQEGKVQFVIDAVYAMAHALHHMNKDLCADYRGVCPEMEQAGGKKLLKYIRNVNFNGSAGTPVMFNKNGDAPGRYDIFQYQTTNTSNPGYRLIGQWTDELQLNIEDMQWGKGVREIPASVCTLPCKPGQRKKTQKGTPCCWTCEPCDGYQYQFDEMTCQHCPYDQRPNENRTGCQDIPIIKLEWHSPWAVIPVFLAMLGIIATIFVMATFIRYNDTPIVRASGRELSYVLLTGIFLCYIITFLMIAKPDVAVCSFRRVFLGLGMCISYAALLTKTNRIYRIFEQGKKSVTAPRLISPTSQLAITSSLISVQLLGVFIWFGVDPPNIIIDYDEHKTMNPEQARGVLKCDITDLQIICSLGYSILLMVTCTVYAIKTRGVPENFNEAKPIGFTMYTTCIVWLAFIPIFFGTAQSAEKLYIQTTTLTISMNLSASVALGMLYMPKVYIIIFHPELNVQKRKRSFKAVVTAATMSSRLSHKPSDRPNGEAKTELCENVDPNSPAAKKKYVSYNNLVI

[29] = molecular target: T5, Sphingosine 1-phosphate receptor 2 (Homo sapiens, UniProt O95136); assay: Dose Response Cell Based Assay for Agonists of the S1P2 Receptor. [Related pubchem assays: 729, 736, 843 ]; type: functional
T5 sequence (O95136 whole entry): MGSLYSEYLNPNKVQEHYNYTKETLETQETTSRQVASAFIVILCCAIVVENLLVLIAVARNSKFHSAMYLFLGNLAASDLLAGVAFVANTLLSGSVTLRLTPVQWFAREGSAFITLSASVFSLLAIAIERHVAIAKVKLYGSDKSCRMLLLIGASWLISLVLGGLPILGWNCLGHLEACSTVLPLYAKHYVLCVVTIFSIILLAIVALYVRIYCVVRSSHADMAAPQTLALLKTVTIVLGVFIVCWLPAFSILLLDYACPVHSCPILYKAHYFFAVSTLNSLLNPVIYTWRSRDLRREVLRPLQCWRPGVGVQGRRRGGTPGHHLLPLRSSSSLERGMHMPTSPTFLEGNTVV

[30] = cells; conditions: HEK293
[31] = toxicity to HepG2 liver cells – cell-based, plate reader, dry powder, set 6, cytotoxicity control, dose response (AID 743311); type: functional
[32] = molecular target: T5, Sphingosine 1-phosphate receptor 2; assay: Dose Response Cell Based Assay for Antagonists of the S1P2 Receptor. [Related pubchem assays: 856, 736 ]; type: functional
[33] = molecular target: T3, Heat shock protein HSP 90-alpha; assay: Luminescence-based dose response biochemical high throughput screening assay for inhibitors of the Heat Shock Protein 90 (HSP90). [Related pubchem assays: 1831 (Summary AID.), 1846 (Confirmation screen.), 1789 (Primary screen.)]
[34] = molecular target: T6, NADPH oxidase 1 (Homo sapiens, UniProt Q9Y5S8); assay: Late stage results from the probe development effort to identify inhibitors of NOX1: HEK/293 IC50. [Related pubchem assays: 1796 (Summary AID (NOX1)), 2752 (Primary screen (NOX1 inhibitors, synthesized analogs set 2)), 2664 (Primary screen (NOX1 inhibitors, synthesized analogs)), 1792 (Primary Screen (NOX1)), 2545 (Confirmation screen (NOX1 …; type: functional
T6 sequence (Q9Y5S8 whole entry): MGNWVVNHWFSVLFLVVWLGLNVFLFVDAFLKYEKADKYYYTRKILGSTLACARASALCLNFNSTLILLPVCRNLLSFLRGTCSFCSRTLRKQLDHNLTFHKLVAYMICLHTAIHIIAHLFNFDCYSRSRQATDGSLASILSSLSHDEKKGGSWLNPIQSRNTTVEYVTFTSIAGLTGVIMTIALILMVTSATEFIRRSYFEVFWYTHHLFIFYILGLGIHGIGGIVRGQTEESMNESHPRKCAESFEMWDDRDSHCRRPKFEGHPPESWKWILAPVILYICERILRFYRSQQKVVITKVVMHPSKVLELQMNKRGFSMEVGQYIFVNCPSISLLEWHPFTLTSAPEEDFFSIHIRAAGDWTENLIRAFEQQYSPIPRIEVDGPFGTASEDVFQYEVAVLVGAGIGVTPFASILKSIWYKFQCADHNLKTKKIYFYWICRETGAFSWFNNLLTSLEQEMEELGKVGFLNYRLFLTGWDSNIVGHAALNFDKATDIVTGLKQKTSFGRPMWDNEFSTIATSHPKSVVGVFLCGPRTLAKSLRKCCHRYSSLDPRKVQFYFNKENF

[35] = molecular target: T6, NADPH oxidase 1; assay: potency of NOX1 inhibition in cells – cell-based, luminescence, cherry picks 2, dose response (AID 434997); type: functional
[36] = molecular target: Peroxisome proliferator-activated receptor gamma/Nuclear receptor coactivator 2 (Homo sapiens, UniProt P37231); type: functional;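 note: agonist potency for raising coactivator recruitment to the receptor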
[37] = molecular target: Peroxisome proliferator-activated receptor gamma/Nuclear receptor coactivator 1 (Homo sapiens, UniProt P37231); type: functional;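 note: agonist potency as compounds enhance coactivator SRC-1 recruitment to PPARgamma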
[38] = molecular target: Peroxisome proliferator-activated receptor gamma/Nuclear receptor coactivator 3 (Homo sapiens, UniProt P37231); type: functional;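 note: agonist potency for raising coactivator recruitment to the receptor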
[39] = molecular target: Mitogen-activated protein kinase 10 (Homo sapiens, UniProt P53779); assay: Dose response biochemical screening assay for inhibitors of c-Jun N-Terminal Kinase 3 (JNK3). [Related pubchem assays: 746 ]
Sequence of Mitogen-activated protein kinase 10 (P53779 whole entry): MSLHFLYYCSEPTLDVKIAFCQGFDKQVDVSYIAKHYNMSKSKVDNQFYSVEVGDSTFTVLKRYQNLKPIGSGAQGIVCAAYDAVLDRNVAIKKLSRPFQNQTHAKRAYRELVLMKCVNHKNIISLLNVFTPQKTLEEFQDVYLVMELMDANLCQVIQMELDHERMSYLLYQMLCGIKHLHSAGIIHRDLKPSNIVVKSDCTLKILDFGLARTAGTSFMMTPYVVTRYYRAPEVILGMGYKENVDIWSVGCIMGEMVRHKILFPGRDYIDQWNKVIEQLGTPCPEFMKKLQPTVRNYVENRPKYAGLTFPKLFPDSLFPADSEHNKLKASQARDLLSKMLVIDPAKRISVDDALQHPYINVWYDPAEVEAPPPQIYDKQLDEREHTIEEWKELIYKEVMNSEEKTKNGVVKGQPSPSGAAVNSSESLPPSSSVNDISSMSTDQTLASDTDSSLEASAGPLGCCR

[40] = rise of 4N DNA cells, HeLa – IC50, dose response (AID 1117351); type: functional, cell-based
[41] = HCT116 cell viability decrease, GSK3B pretreatment – CellTiter-Glo, IC50, dose response (AID 1117339); type: functional; conditions: HCT-116
[42] = rise of 2N DNA cells, HeLa – IC50, dose response (AID 1117349); type: functional, cell-based

Cc1cc(C(C#N)c2ccc(Cl)cc2)c(Cl)cc1NC(=O)c1cc(I)cc(I)c1O (stereo not drawn) [CLOSANTEL]
IC50 [1]: 0.069 µM (active)
IC50 [2]: 0.0438 µM (active)
IC50 [3]: 0.0978 µM (active)
IC50 [4]: 0.126 µM (active)
IC50 [5]: 6.59 µM (active)
IC50 [6]: > 66.6 µM (inactive)
IC50 [7]: 0.197 µM (active)
EC50 [8]: 0.114 µM (active)
IC50 [9]: 25 µM (inactive)
IC50 [10]: 0.046 µM (active)
IC50 [11]: 0.116 µM (active)
EC50 [12]: 0.092 µM (active)

CN(C)C(=S)SSC(=S)N(C)C [THIRAM]
IC50 [13]: 0.223 µM (active)
EC50 [14]: 0.18 µM (active)
IC50 [15]: 89.3 µM (active)
IC50 [16]: > 33.3 µM (inactive)
IC50 [17]: > 40 µM (inactive)
AC50 [18]: 7.74 µM (active)

O=S(=O)(Nc1cc(C(F)(F)F)ccc1N1CCCCC1)c1cc(Cl)cc(Cl)c1
AC50 [19]: 41 µM (active)
AC50 [20]: 45.8 µM (active)

c1cc2c(cc1C1=Nn3c(nnc3C3CCCCC3)SC1)OCO2
EC50 [21]: > 167 µM (inactive)
IC50 [22]: 10.9 µM (not active)

O=C(c1cc(-c2ccco2)nn1-c1cccc(Cl)c1)N1CCCCC1
CC50 [23]: > 40 µM (active)
IC50 [24]: > 109 µM (not active)
IC50 [25]: > 60.7 µM (active)
IC50 [26]: > 100 µM (inconclusive)
IC50 [27]: > 109 µM (not active)

CC(=O)Nc1ccc(SCC(=O)c2cc(C)n(-c3cccc(F)c3)c2C)cc1
EC50 [28]: 1.6 µM (active)

Cc1cccc(C(=O)NC2CC3CCCC(C2)N3C(=O)NC2CCCCC2)c1 (stereo not drawn)
EC50 [29]: > 50 µM (not active)

Sc1nc2cc(Cl)ccc2n1CCOc1ccccc1
AC50 [30]: > 52 µM (inactive)
AC50 [31]: > 52 µM (inactive)

Cc1nc(-c2cccs2)sc1C(=O)Nc1ccc(F)cc1
IC50 [32]: > 30 µM (not active)

O=[N+]([O-])c1ccc(S(=O)(=O)N2CCN=C2SCc2ccc(F)cc2)cc1
IC50 [33]: 4.79 µM (active)

CN(C)c1ccc(NC(=O)Nc2ccc(OCc3ccccc3)cc2)cc1
IC50 [34]: 2.37 µM (active)
IC50 [35]: 0.23 µM (active)

Cn1c(C(=O)NCc2ccco2)cc2c(=O)[nH]c3ccccc3c21
EC50 [36]: > 79.4 µM (not active)
EC50 [37]: > 79.4 µM (not active)
EC50 [38]: > 79.4 µM (not active)
IC50 [39]: 31.4 µM (not active)

CC(=O)O[C@@]12CO[C@@H]1C[C@H](O)[C@@]1(C)C(=O)[C@H](O)C3=C(C)[C@@H](OC(=O)[C@H](O)[C@@H](NC(=O)OC(C)(C)C)c4ccccc4)C[C@@](O)([C@@H](OC(=O)c4ccccc4)[C@H]21)C3(C)C [DOCETAXEL]
IC50 [2]: > 20 µM (inactive)
IC50 [3]: 0.001 µM (active)
IC50 [4]: 0.001 µM (active)
IC50 [7]: 0.001 µM (active)
IC50 [40]: 0.00335 µM (active)
IC50 [41]: 0.001 µM (active)
IC50 [10]: 0.001 µM (active)
IC50 [11]: 0.001 µM (active)
IC50 [42]: 0.0031 µM (active)
